In ChEMBL document CHEMBL4346757, “Synthesis and biological evaluation of 7-methoxy-1-(3,4,5-trimethoxyphenyl)-4,5-dihydro-2H-benzo[e]indazoles as new colchicine site inhibitors” (Bioorg Med Chem Lett, 2019):

What was measured:
Format in all cases: functional
ACHN [1] = experiment: Growth inhibition of human ACHN cells assessed as cell growth at 100 uM after 48 hrs by SRB assay relative to control; details: read-out: Activity
SN12C = experiment: Growth inhibition of human SN12C cells assessed as cell growth at 100 uM after 48 hrs by SRB assay relative to control; details: read-out: Activity
Hs-578T [2] = experiment: Growth inhibition of human Hs 578T cells assessed as cell growth at 10 uM after 48 hrs by SRB assay relative to control; details: read-out: Activity
SF-268 = experiment: Growth inhibition of human SF268 cells assessed as cell growth at 1 uM after 48 hrs by SRB assay relative to control; details: SF-268, 48 h, read-out: Activity
OVCAR-4 [3] = experiment: Growth inhibition of human OVCAR4 cells assessed as cell growth at 0.01 uM after 48 hrs by SRB assay relative to control; details: OVCAR-4, 48 h, read-out: Activity
ACHN [4] = experiment: Growth inhibition of human ACHN cells assessed as cell growth at 0.01 uM after 48 hrs by SRB assay relative to control; details: read-out: Activity
HCT-116 = experiment: Growth inhibition of human HCT116 cells assessed as cell growth at 100 uM after 48 hrs by SRB assay relative to control; details: HCT-116, 48 h, read-out: Activity
CCRF-CEM [5] = experiment: Cytotoxicity against human CCRF-CEM cells assessed as growth inhibition after 48 hrs by SRB assay
OVCAR-8 [6] = experiment: Cytotoxicity against human OVCAR8 cells assessed as growth inhibition after 48 hrs by SRB assay; details: OVCAR-8, 48 h
SK-MEL-28 = experiment: Growth inhibition of human SK-MEL-28 cells assessed as cell growth at 100 uM after 48 hrs by SRB assay relative to control; details: SK-MEL-28, 48 h, read-out: Activity
EKVX [7] = experiment: Growth inhibition of human EKVX cells assessed as cell growth at 10 uM after 48 hrs by SRB assay relative to control; details: read-out: Activity
HOP-92 = experiment: Growth inhibition of human HOP92 cells assessed as cell growth at 100 uM after 48 hrs by SRB assay relative to control; details: HOP-92, 48 h, read-out: Activity
DU-145 = experiment: Cytotoxicity against human DU145 cells assessed as growth inhibition after 48 hrs by SRB assay; details: DU-145, 48 h
OVCAR-8 [8] = experiment: Growth inhibition of human OVCAR8 cells assessed as cell growth at 0.1 uM after 48 hrs by SRB assay relative to control; details: OVCAR-8, 48 h, read-out: Activity
MCF7 [9] = experiment: Growth inhibition of human MCF7 cells assessed as cell growth at 1 uM after 48 hrs by SRB assay relative to control; details: MCF7, 48 h, read-out: Activity
CCRF-CEM [10] = experiment: Growth inhibition of human CCRF-CEM cells assessed as cell growth at 10 uM after 48 hrs by SRB assay relative to control; details: read-out: Activity
RXF 393 = experiment: Growth inhibition of human RXF393 cells assessed as cell growth at 1 uM after 48 hrs by SRB assay relative to control; details: RXF 393, 48 h, read-out: Activity
HOP-62 = experiment: Growth inhibition of human HOP62 cells assessed as cell growth at 100 uM after 48 hrs by SRB assay relative to control; details: HOP-62, 48 h, read-out: Activity
LOX IMVI = experiment: Growth inhibition of human LOXIMVI cells assessed as cell growth at 1 uM after 48 hrs by SRB assay relative to control; details: read-out: Activity
CCRF-CEM [11] = experiment: Growth inhibition of human CCRF-CEM cells assessed as cell growth at 0.1 uM after 48 hrs by SRB assay relative to control; details: read-out: Activity
MCF7 [12] = experiment: Cytotoxicity against human MCF7 cells assessed as growth inhibition after 48 hrs by SRB assay; details: MCF7, 48 h
NCI/ADR-RES = experiment: Growth inhibition of human NCI-ADR-RES cells assessed as cell growth at 100 uM after 48 hrs by SRB assay relative to control; details: read-out: Activity
NCI-H460 = experiment: Growth inhibition of human NCI-H460 cells assessed as cell growth at 10 uM after 48 hrs by SRB assay relative to control; details: NCI-H460, 48 h, read-out: Activity
CAKI-1 = experiment: Cytotoxicity against human Caki1 cells assessed as growth inhibition after 48 hrs by SRB assay; details: CAKI-1, 48 h
T47D = experiment: Growth inhibition of human T47D cells assessed as cell growth at 0.1 uM after 48 hrs by SRB assay relative to control; details: read-out: Activity
MOLT-4 = experiment: Growth inhibition of human MOLT4 cells assessed as cell growth at 100 uM after 48 hrs by SRB assay relative to control; details: MOLT-4, 48 h, read-out: Activity
UACC-62 = experiment: Growth inhibition of human UACC62 cells assessed as cell growth at 0.1 uM after 48 hrs by SRB assay relative to control; details: UACC-62, 48 h, read-out: Activity
Hs-578T [13] = experiment: Growth inhibition of human Hs 578T cells assessed as cell growth at 0.01 uM after 48 hrs by SRB assay relative to control; details: read-out: Activity
EKVX [14] = experiment: Growth inhibition of human EKVX cells assessed as cell growth at 100 uM after 48 hrs by SRB assay relative to control; details: read-out: Activity
SK-MEL-2 = experiment: Growth inhibition of human SK-MEL-2 cells assessed as cell growth at 0.01 uM after 48 hrs by SRB assay relative to control; details: SK-MEL-2, 48 h, read-out: Activity
OVCAR-4 [15] = experiment: Growth inhibition of human OVCAR4 cells assessed as cell growth at 10 uM after 48 hrs by SRB assay relative to control; details: OVCAR-4, 48 h, read-out: Activity
HT-29 = experiment: Cytotoxicity against human HT-29 cells assessed as growth inhibition after 48 hrs by SRB assay; details: HT-29, 48 h
[16] = read-out: LC50 (the source's name)
[17] = read-out: pLC50 (the source's name) (converted)

COc1ccc2c(c1)CCc1n[nH]c(-c3cc(OC)c(OC)c(OC)c3)c1-2
growth at 100 µM (ACHN [1]): -29% | growth at 100 µM (SN12C): -47% | growth at 10 µM (Hs-578T [2]): 9% | growth at 1 µM (SF-268): 29% | growth at 0.01 µM (OVCAR-4 [3]): 41% | growth at 0.01 µM (ACHN [4]): 30% | growth at 100 µM (HCT-116): -66% | GI50 (CCRF-CEM [5]; read-out: GI50): < 0.01 µM | CC50 (CCRF-CEM [5]; [16]): > 100 µM | TGI (CCRF-CEM [5]; read-out: TGI): > 100 µM | GI50 (CCRF-CEM [5]; read-out: pGI50 (converted)): < 0.01 µM | CC50 (CCRF-CEM [5]; [17]): > 100 µM | TGI (CCRF-CEM [5]; read-out: pTGI): > 100 µM | GI50 (OVCAR-8 [6]; read-out: GI50): < 0.01 µM | LC50 (concentration killing 50% of cells) (OVCAR-8 [6]; read-out: LC50): > 100 µM | TGI (OVCAR-8 [6]; read-out: TGI): 15.4 µM | GI50 (OVCAR-8 [6]; read-out: pGI50 (converted)): < 0.01 µM | LC50 (concentration killing 50% of cells) (OVCAR-8 [6]; read-out: pLC50 (converted)): > 100 µM | TGI (OVCAR-8 [6]; read-out: pTGI (converted)): 15.5 µM | growth at 100 µM (SK-MEL-28): -66% | growth at 10 µM (EKVX [7]): 37% | growth at 100 µM (HOP-92): -50% | GI50 (DU-145; read-out: GI50): < 0.01 µM | CC50 (DU-145; [16]): > 100 µM | TGI (DU-145; read-out: TGI): > 100 µM | GI50 (DU-145; read-out: pGI50 (converted)): < 0.01 µM | CC50 (DU-145; [17]): > 100 µM | TGI (DU-145; read-out: pTGI): > 100 µM | growth at 0.1 µM (OVCAR-8 [8]): 13% | growth at 1 µM (MCF7 [9]): 12% | growth at 10 µM (CCRF-CEM [10]): 41% | growth at 1 µM (RXF 393): 6% | growth at 100 µM (HOP-62): -76% | growth at 1 µM (LOX IMVI): 18% | growth at 0.1 µM (CCRF-CEM [11]): 42% | GI50 (MCF7 [12]; read-out: GI50): < 0.01 µM | LC50 (MCF7 [12]; read-out: LC50): > 100 µM | TGI (MCF7 [12]; read-out: TGI): 12.9 µM | GI50 (MCF7 [12]; read-out: pGI50 (converted)): < 0.01 µM | LC50 (MCF7 [12]; read-out: pLC50 (converted)): > 100 µM | TGI (MCF7 [12]; read-out: pTGI (converted)): 12.9 µM | growth at 100 µM (NCI/ADR-RES): -31% | growth at 10 µM (NCI-H460): -5% | GI50 (CAKI-1; read-out: GI50): < 0.01 µM | LC50 (concentration killing 50% of cells) (CAKI-1; read-out: LC50): > 100 µM | TGI (CAKI-1; read-out: TGI): 24.8 µM | GI50 (CAKI-1; read-out: pGI50 (converted)): < 0.01 µM | LC50 (concentration killing 50% of cells) (CAKI-1; read-out: pLC50 (converted)): > 100 µM | TGI (CAKI-1; read-out: pTGI (converted)): 24.5 µM | growth at 0.1 µM (T47D): 74% | growth at 100 µM (MOLT-4): 6% | growth at 0.1 µM (UACC-62): 35% | growth at 0.01 µM (Hs-578T [13]): 14% | growth at 100 µM (EKVX [14]): -25% | growth at 0.01 µM (SK-MEL-2): 39% | growth at 10 µM (OVCAR-4 [15]): 35% | GI50 (HT-29; read-out: GI50): < 0.01 µM | CC50 (HT-29; [16]): 49.9 µM | TGI (HT-29; read-out: TGI): 10.1 µM | GI50 (HT-29; read-out: pGI50 (converted)): < 0.01 µM | CC50 (HT-29; [17]): 50.1 µM | TGI (HT-29; read-out: pTGI (converted)): 10 µM
